Usually Papp stands for the rate of passage across a membrane or cell layer, normalised by area and donor concentration. For orientation: IC50 means the concentration at which inhibition is half-maximal.

Read-outs that look alike come from different tables or passages of the source.

Series [1] in a line: PAMPA assay for prediction of BBB penetration (polar brain lipid). The conditions noted are these: for Papp at 30 µM: PAMPA, pH 7.4; for CNS Predicted Availability: class from PAMPA Pe; for BBB permeation via passive diffusion, in words: from PAMPA Pe.
The next series is described as follows: MTT cytotoxicity assay. The format is cell-based. Particulars: Chinese hamster. As for the experimental part: (§1) Adherent epithelial CHO-K1 cell line (Chinese hamster ovary, ATCC, #CCL-61, Manassas, VA, USA) was grown in Ham’s F12 Nutrient Mixture supplemented with 10% heat-inactivated FBS and antibiotics 1% penicillin (10,000 U/mL)/streptomycin (10,000 µg/mL) at 37 °C, 95% humidity and under 5% CO2.
(§2) The cytotoxic effect of the studied compounds was assessed using standard MTT (3-[4–dimethylthiazol-2-yl]-2,5-diphenyltetrazolium bromide) assay on the CHO-K1 cell line. […] Cells were seeded in 96-well plates and exposed to the tested compounds in the medium (100 µL) for 24 h at 37 °C, 95% humidity, and in an atmosphere of 5% CO2. Subsequently, this medium was replaced by the medium containing MTT (10 µM) and incubated for another 3–4 h. After that, the medium with MTT was removed and formazan crystals were dissolved by the addition of 100 µL DMSO. Viability of the cells was estimated spectrophotometrically by the amount of produced formazan. The absorbance was measured at 570 nm, with 650 nm as a reference wavelength on a Synergy HT reader (Biotek, USA). Results were expressed as IC50 from the control-subtracted triplicates (in comparison with untreated control) using non-linear regression (four parameters) in GraphPad Prism 7.03 (GraphPad Software Inc., CA, USA).
For orientation: Tetrazolium assays rely on reduction of a dye to a coloured formazan, in cell work by metabolically active cells.

In series [2] the target is T1, human OX2R (Homo sapiens, UniProt O43614).
T1 construct: host or cells: CHO-K1
T1 sequence (O43614 1-444): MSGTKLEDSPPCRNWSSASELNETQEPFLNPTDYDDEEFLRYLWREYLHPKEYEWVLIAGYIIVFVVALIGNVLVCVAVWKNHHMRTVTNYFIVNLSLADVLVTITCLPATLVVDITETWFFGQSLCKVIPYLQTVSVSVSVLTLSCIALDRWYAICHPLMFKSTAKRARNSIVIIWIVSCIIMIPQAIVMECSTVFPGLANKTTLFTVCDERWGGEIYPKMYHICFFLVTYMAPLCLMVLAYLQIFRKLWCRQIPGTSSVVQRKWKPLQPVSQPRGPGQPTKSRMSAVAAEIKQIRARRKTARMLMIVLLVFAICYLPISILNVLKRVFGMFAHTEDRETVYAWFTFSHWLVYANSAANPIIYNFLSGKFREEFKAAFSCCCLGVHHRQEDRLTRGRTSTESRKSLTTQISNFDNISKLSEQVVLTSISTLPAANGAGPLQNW
In words: OX2R calcium assay, antagonist mode against orexin A (Fluo-3, CHO-K1 cells stably expressing human OX2R). The format is cell-based. The conditions noted are these: for IC50: 0.1 μM orexin A as agonist, mean ± SEM, n = 3, read-out: IC50 antagonistic effect in orexin A-OX2R interaction; for antagonistic screening: reduction of orexin A response signal: ligand 10 μM, orexin A 100 nM, data not shown.

A further series can be described thus: in vitro. Particulars: PAMPA, pH 7.4. Background: In PAMPA a lipid-coated filter parts donor from acceptor wells.
In series [3] the target is T1, human OX2R. In words: OX2R calcium assay, agonist mode (Fluo-3, CHO-K1 cells stably expressing human OX2R). The format is cell-based. The conditions noted are these: for agonistic effect in screening: 10 μM ligand; for agonistic effect at higher concentrations: higher concentrations than 10 μM, data not shown.
The conditions of series [4]: PAMPA, pH 7.4.
The test system of another series is CHO-K1 cell line. In words: MTT cytotoxicity assay. The format is cell-based. The conditions noted are these: Chinese hamster, 24 h. As for the experimental part:
as §1, §2

The mark [5] stands for this setting: CHO-K1 cells, MTT, 24 h exposure, read-out: Cytotoxicity CHO-K1 IC50 ± SEM.

Regarding `O=C1CN(C(=O)CN2CCN(S(=O)(=O)c3ccc4ccccc4c3)CC2)c2ccccc2N1` [Ligand L2, 4-{2-[4-(naphthalene-2-sulfonyl)piperazin-1-yl]acetyl}-1,2,3,4-tetrahydroquinoxalin-2-one], in series [1], the Papp at 30 µM is 31.6 ± 3.4 ×10⁻⁶ cm/s and the “CNS Predicted Availability” value is “CNS + (CNS + (high BBB permeation predicted): Pe (×10^−6 cm s^−1) > 4.0)”. Moreover, the IC50 at 24 h in “MTT cytotoxicity assay” (setting [5]) was determined as 165 ± 5.36 µM.
Regarding `O=C(c1cc(-c2ccco2)nc2ccccc12)N1CCN(C(=O)C2COc3ccccc3O2)CC1` (stereo not shown) [Ligand L3, 4-[4-(2,3-dihydro-1,4-benzodioxine-2-carbonyl)piperazine-1-carbonyl]-2-(furan-2-yl)quinoline], at human OX2R [2], the IC50 came to 8.9 ± 0.43 µM and the “antagonistic screening: reduction of orexin A response signal” value (shortened to “antagonistic screening: reduction”) is recorded as “significantly reduce the signal of orexin A response”. Besides, in series [1], the Papp at 30 µM is 17.9 ± 2.2 ×10⁻⁶ cm/s and the “CNS Predicted Availability” value is recorded as “CNS + (CNS + (high BBB permeation predicted): Pe (×10^−6 cm s^−1) > 4.0)”. The IC50 at 24 h in “MTT cytotoxicity assay” (setting [5]) turned out to be 279 ± 36.6 µM.
On to `CNC(=C[N+](=O)[O-])NCCSCc1ccc(CN(C)C)o1` [Ranitidine, reference compound], for which the Papp in the series “in vitro” came out at 0.04 ± 0.02 ×10⁻⁶ cm/s. Moreover, in series [1], the “CNS Predicted Availability” value is given as “CNS − (CNS − (low BBB permeation predicted): Pe (×10^−6 cm s^−1) < 2.0)”.
For the molecule `O=C(c1cnn(-c2ncc3c(n2)-c2ccccc2CC3)c1C1CC1)N1CCN(Cc2ccccc2)CC1` [Ligand L1, 1-(1-{5H,6H-benzo[h]quinazolin-2-yl}-5-cyclopropyl-1H-pyrazole-4-carbonyl)-4-benzylpiperazine], in series [1], the Papp at 30 µM was 10.2 ± 0.9 ×10⁻⁶ cm/s and the “CNS Predicted Availability” value is given as “CNS + (CNS + (high BBB permeation predicted): Pe (×10^−6 cm s^−1) > 4.0)”. The IC50 at 24 h in “MTT cytotoxicity assay” (setting [5]) worked out at 78.8 ± 6.88 µM.
Turning to `O=C(Cn1nc(-c2ccc(F)cc2)oc1=O)N1CCCC1c1ccc2c(c1)OCCCO2` (stereo not shown) [Ligand L9, 3-{2-[2-(3,4-dihydro-2H-1,5-benzodioxepin-7-yl)pyrrolidin-1-yl]-2-oxoethyl}-5-(4-fluorophenyl)-2,3-dihydro-1,3,4-oxadiazol-2-one], in series [1], the Papp at 30 µM is 32.3 ± 1.5 ×10⁻⁶ cm/s and the “CNS Predicted Availability” value is listed as “CNS + (CNS + (high BBB permeation predicted): Pe (×10^−6 cm s^−1) > 4.0)”. On human OX2R [3], the “agonistic effect in screening” value is “subtle agonistic effect” and the “agonistic effect at higher concentrations” value is reported as “neither an agonistic nor dose-response effect”. In addition, the IC50 at 24 h in “MTT cytotoxicity assay” (setting [5]) worked out at 144 ± 11.1 µM.
With `Cc1ccccc1Cn1cc(/C=C2\C(=N)N3N=C(CC(=O)N4CCCC4)SC3=NC2=O)c2ccccc21` [Ligand L7, (6E)-5-imino-6-({1-[(2-methylphenyl)methyl]-1H-indol-3-yl}methylidene)-2-[2-oxo-2-(pyrrolidin-1-yl)ethyl]-5H,6H,7H-[1,3,4]thiadiazolo[3,2-a]pyrimidin-7-one], on human OX2R [2], the IC50 was 25 ± 2.6 µM and the “antagonistic screening: reduction” value is “significantly reduce the signal of orexin A response”. Moreover, in series [1], the Papp at 30 µM was 3.37 ± 2.1 ×10⁻⁶ cm/s; the “CNS Predicted Availability” value was “CNS +/− (CNS +/− (BBB permeation uncertain): Pe (×10^−6 cm s^−1) from 4.0 to 2.0)”; the “BBB permeation via passive diffusion, in words” value is “uncertain permeation through the BBB”. The “Pe ± SEM” value in series [1] (PAMPA-BBB, PBS pH 7.4, 30 µM donor, at least three measurements) is reported as 2.0–4.0 ×10^−6 cm s^−1. The IC50 at 24 h in the series “MTT cytotoxicity assay” (setting [5]) was found to be 61.8 ± 3.74 µM.
For `NS(=O)(=O)c1cc2c(cc1Cl)N=CNS2(=O)=O` [Chlorothiazide, reference compound], in series [1], the Papp at 30 µM is […].
On to `O=C(Nc1ccc2n(c1=O)C[C@H]1C[C@@H]2CN(C(=O)c2ccccn2)C1)c1ccccc1` [Ligand L8, N-[(1R,9S)-6-oxo-11-(pyridine-2-carbonyl)-7,11-diazatricyclo[7.3.1.0^2,7]trideca-2,4-dien-5-yl]benzamide], for which the “Pe ± SEM” value in series [4] is given as 2.0–4.0. This molecule gave a Papp at 30 µM in the series “in vitro” of 4 ± 0.3 ×10⁻⁶ cm/s. In series [1], the “CNS Predicted Availability” value is on record as “CNS +/− (CNS +/− (BBB permeation uncertain): Pe (×10^−6 cm s^−1) from 4.0 to 2.0)” and the “BBB permeation via passive diffusion, in words” value is on record as “uncertain permeation through the BBB”. In addition, the IC50 with CHO-K1 cell line was around 700 µM. Further, in “MTT cytotoxicity assay” (Cytotoxicity CHO-K1 IC50 ± SEM), the IC50 at 24 h is above 700 µM.
Regarding `O=C1CC(C(=O)Nc2cccc(-c3ccc4c(c3)CCO4)c2)c2ccccc2N1` (stereo not shown) [Ligand L10, N-[3-(2,3-dihydro-1-benzofuran-5-yl)phenyl]-2-oxo-1,2,3,4-tetrahydroquinoline-4-carboxamide], on human OX2R [2], the IC50 is 27.8 ± 0.5 µM and the “antagonistic screening: reduction” value is listed as “significantly reduce the signal of orexin A response”. Also, in series [1], the Papp at 30 µM was 18.9 ± 2.4 ×10⁻⁶ cm/s and the “CNS Predicted Availability” value is given as “CNS + (CNS + (high BBB permeation predicted): Pe (×10^−6 cm s^−1) > 4.0)”. Also, the IC50 at 24 h in “MTT cytotoxicity assay” (setting [5]) is 53.9 ± 5.03 µM.
As to `O=C(c1cc(-c2ccco2)nc2ccccc12)N1CCN(c2ccc(=O)n(-c3ccc(F)cc3)n2)CC1` [Ligand L4, 2-(4-fluorophenyl)-6-{4-[2-(furan-2-yl)quinoline-4-carbonyl]piperazin-1-yl}-2,3-dihydropyridazin-3-one], at human OX2R [2], the IC50 came to 2.2 ± 0.47 µM and the “antagonistic screening: reduction” value is given as “significantly reduce the signal of orexin A response”. Besides, in series [1], the Papp at 30 µM was 18.3 ± 0.1 ×10⁻⁶ cm/s and the “CNS Predicted Availability” value is listed as “CNS + (CNS + (high BBB permeation predicted): Pe (×10^−6 cm s^−1) > 4.0)”. Further, the IC50 at 24 h in “MTT cytotoxicity assay” (setting [5]) came out at 99.8 ± 10.7 µM.
In the case of `CCn1nnc2cc(C(=O)Nc3ccc4[nH]c(-c5cc(F)ccc5F)nc4c3)ccc21` [Ligand L11, N-[2-(2,5-difluorophenyl)-1H-1,3-benzodiazol-5-yl]-1-ethyl-1H-1,2,3-benzotriazole-5-carboxamide], on human OX2R [3], the “agonistic effect in screening” value is listed as “subtle agonistic effect” and the “agonistic effect at higher concentrations” value is “neither an agonistic nor dose-response effect”. Besides, in “MTT cytotoxicity assay” (setting [5]), the IC50 at 24 h stood at 28.3 ± 4.07 µM.
Turning to `Cn1c(=O)c2c(-c3ccccc3)n3c(c2n(C)c1=O)C(c1coc2ccccc2c1=O)OCC3` (stereo not shown) [Ligand L6, 3,5-dimethyl-13-(4-oxo-4H-chromen-3-yl)-8-phenyl-12-oxa-3,5,9-triazatricyclo[7.4.0.0^2,7]trideca-1,7-diene-4,6-dione], at human OX2R [2], the IC50 was 12.2 ± 3.1 µM and the “antagonistic screening: reduction” value is given as “significantly reduce the signal of orexin A response”. Further, in series [1], the Papp at 30 µM was 17.6 ± 6.4 ×10⁻⁶ cm/s and the “CNS Predicted Availability” value is “CNS + (CNS + (high BBB permeation predicted): Pe (×10^−6 cm s^−1) > 4.0)”. At human OX2R [3], the “agonistic effect in screening” value is listed as “subtle agonistic effect” and the “agonistic effect at higher concentrations” value was “neither an agonistic nor dose-response effect”. Besides, the IC50 at 24 h in “MTT cytotoxicity assay” (setting [5]) was above 100 µM.
In the case of `CC1CCCC(=O)CCC/C=C/c2cc3c(c(O)c2C(=O)O1)C(c1cc2ccccc2nc1O)CC(=O)O3` (stereo not shown) [Ligand L5, (12E)-22-hydroxy-20-(2-hydroxyquinolin-3-yl)-4-methyl-3,17-dioxatricyclo[12.8.0.0^16,21]docosa-1(14),12,15,21-tetraene-2,8,18-trione], in the series “in vitro”, the Papp was found to be 12 ± 2.5 ×10⁻⁶ cm/s. The “CNS Predicted Availability” value in series [1] is reported as “CNS + (CNS + (high BBB permeation predicted): Pe (×10^−6 cm s^−1) > 4.0)”. Moreover, the IC50 at 24 h in the series “MTT cytotoxicity assay” (MTT, 24 h exposure, read-out: Cytotoxicity CHO-K1 IC50 ± SEM) worked out at 59 ± 6.41 µM.

The values are drawn from PMC6278354, “Investigation of New Orexin 2 Receptor Modulators Using In Silico and In Vitro Methods” (Molecules, 2018).
